Results published in patent publication US11802259B2, “Process of reducing malodors on fabrics” (The Procter & Gamble Company, priority 2019, dated 2023).

Test: Malodor Reduction Test Method (wash of body soil malodor test fabrics, SPME GC-MS of oxidation markers)
Settings: antioxidant at 0.035 wt % in detergent
Method: The following method is used to test the malodor reduction benefits of a composition.
Fatty acids and malodor markers are added into 100 ml glass gar with Teflon-lined cap according to Table A and mixed well using a vortex.
Provided the specified amount of each material according to Table B into a 200 mL glass jar with Teflon lined cap. Artificial body soil (ABS) is commercially available by Accurate Product Development; 2028 Bohlke Blvd, Fairfield, Ohio 45014.
Sixteen malodor test fabrics per wash load are prepared by applying 300 μl of Body soil malodor composition described in Table B to de-sized 2×5 inch white polycotton 50/50 (PCW50/50) swatches. 48 grams of liquid detergent to be tested (see, e.g., Example 1, Table 1, below) is added to Duet 9200 washing appliance set to Normal cycle; 77° F. wash cycle followed by a 60° F. rinse cycle. […]
The malodor reduction using ABS/Squalene malodor sensors are quantitatively determined by Gas Chromatography Mass Spectroscopy using an Agilent gas chromatograph 7890B equipped with a mass selective detector (5977B), a Chemstation quantitation package and a Gerstel multi-purpose sampler equipped with a solid phase micro-extraction (SPME) probe. […] Based on the partition coefficients (K at 80 C) of each component, the total nMol/L liter of 6-Methyl-5-hepten-2-one (K=3353), Trans-2-heptenal (K=3434), and 3-methyl-2-Butenal (K=1119) are calculated. […]

Q: With `Cc1c(C)c2c(c(C)c1O)CCC(C)(C(=O)O)O2` (stereo not shown) [Antioxidant 7, 3,4-dihydro-6-hydroxy-2,5,7,8-tetramethyl-2H-1-Benzopyran-2-carboxylic acid] as the compound, how does the “malodor reduction benefits (reduction in total oxidation markers)” value read?
A: did not provide benefits
